A short description of series [1]: Pro-oxidant activity assessed as bleomycin-Fe3+ complex-induced DNA damage at 1 mg/ml after 1 hr. The format is ADME.
Series [2] in a line: Antioxidant activity assessed as inhibition of ABTS free radical formation at 1 mg/ml by spectroscopic analysis (reference value: 0%). The format is functional.
The next series deals with Ehrlich. Description: In vitro antitumor activity against Mus musculus (mouse) Ehrlich ascites cell assessed as dead tumor cells by trypan blue exclusion test. The format is functional.
The nature of series [3]: Antioxidant activity assessed as inhibition of ABTS free radical formation at 2 mM by spectroscopic analysis (reference value: 0%). In kind it is functional.

The results in this text go back to ChEMBL document CHEMBL3046931, “Synthesis, antioxidant, and antitumor evaluation of certain new N-substituted-2-amino-1,3,4-thiadiazoles” (Med Chem Res, 2013).

The structures appear in SMILES notation.

The term inhibition denotes the percentage by which the read-out fell short of the control.

For `Clc1ccc(CNc2nncs2)cc1`, the OD in series [1] came to 0.108. Besides, the inhibition in series [2] is 0.354%.
Turning to `O=C(CNc1nncs1)Nc1nncs1`, in the series on Ehrlich, the ED25 is 9.4 microg/cm3, the ED50 was 18.9 microg/cm3 and the ED100 worked out at 39.1 microg/cm3.
Consider `c1nnc(/N=N/Nc2nncs2)s1`, for which the OD in series [1] was determined as 0.103. In series [2], the inhibition turned out to be 24.5%. In addition, in the series with Ehrlich, the ED25 is 19.3 microg/cm3, the ED50 came out at 33 microg/cm3 and the ED100 came out at 61.5 microg/cm3.
Regarding `CC1=NN(c2ccccc2)C(=O)/C1=N\Nc1nncs1`, in the series with Ehrlich, the ED25 is on record as 10 microg/cm3, the ED50 worked out at 21 microg/cm3 and the ED100 is recorded as 42.1 microg/cm3.
In the case of `Cl/C(=N\c1nncs1)c1ccc(Cl)cc1`, in the series on Ehrlich, the ED25 is 6.9 microg/cm3, the ED50 amounted to 13 microg/cm3 and the ED100 amounted to 6.9 microg/cm3.
`O=C(CN1CCN(CC(=O)Nc2nncs2)CC1)Nc1nncs1`: in the series on Ehrlich, the ED25 is 8.7 microg/cm3, the ED50 turned out to be 18 microg/cm3 and the ED100 is 37 microg/cm3.
Consider `Clc1ccc(C/N=c2/scnn2Cc2ccc(Cl)cc2)cc1`, for which the OD in series [1] is reported as 0.121. Moreover, the inhibition in series [2] turned out to be 38%. Besides, in the series with Ehrlich, the ED25 came out at 7.4 microg/cm3, the ED50 is on record as 16 microg/cm3 and the ED100 is on record as 29 microg/cm3.
Take `Nc1nncs1`: the OD in series [1] is 0.09. The inhibition in series [2] was 28.5%. Also, in the series on Ehrlich, the ED25 is 37 microg/cm3, the ED50 stood at 56 microg/cm3 and the ED100 is 92.9 microg/cm3.
Turning to `O=C1O[C@H]([C@@H](O)CO)C(O)=C1O` [ASCORBIC ACID], in series [3], the inhibition was 88.5%. The OD in series [1] is reported as 0.098.
Take `O=C(CCl)Nc1nncs1`: the OD in series [1] is 0.102. In addition, the inhibition in series [2] is 27.1%. For the same molecule, in the series on Ehrlich, the ED25 is given as 7.8 microg/cm3, the ED50 is recorded as 16 microg/cm3 and the ED100 amounted to 28 microg/cm3.
For the molecule `N#CSCC(=O)Nc1nncs1`, the OD in series [1] is reported as 0.099. In series [2], the inhibition came to 25.7%.
Take `Clc1ccc(-c2nnnn2-c2nncs2)cc1`: in the series on Ehrlich, the ED25 is 12 microg/cm3, the ED50 was 23 microg/cm3 and the ED100 turned out to be 41 microg/cm3.
Regarding `Cc1cc(C)c2c(n1)nn1c(N)c(C(=O)Nc3nncs3)nnc21`, in the series on Ehrlich, the ED25 worked out at 25 microg/cm3, the ED50 is given as 48.2 microg/cm3 and the ED100 was 80.7 microg/cm3.
For `CN(C)/C=C(\C#N)C(=O)Nc1nncs1`, the OD in series [1] is 0.127. In addition, in series [2], the inhibition was determined as 23.7%. Moreover, in the series on Ehrlich, the ED25 was 7.8 microg/cm3, the ED50 turned out to be 14.1 microg/cm3 and the ED100 is reported as 26 microg/cm3.
Regarding `Nc1n[nH]cc1C(=O)Nc1nncs1`, the OD in series [1] is reported as 0.102. The inhibition in series [2] worked out at 18.9%.
On to `O=c1[nH]cc(F)c(=O)[nH]1` [FLUOROURACIL], for which, in the series on Ehrlich, the ED25 is 40 microg/cm3, the ED50 is recorded as 63 microg/cm3 and the ED100 is 97 microg/cm3.
As for `Cc1cc(C)c2c(NN/C=C(\C#N)C(=O)Nc3nncs3)n[nH]c2n1`, the OD in series [1] is given as 0.109. Further, the inhibition in series [2] was determined as 51.8%. In addition, in the series on Ehrlich, the ED25 was 5 microg/cm3, the ED50 is on record as 10.2 microg/cm3 and the ED100 amounted to 19 microg/cm3.
In the same order, the values of `Nc1nnc(SCC(=O)Nc2nncs2)s1` are 0.101, 20.7%, 14.4 microg/cm3, 27 microg/cm3 and 42.5 microg/cm3.
`N#C/C(=C\c1ccc(N2CCCCC2)cc1)C(=O)Nc1nncs1`: the OD in series [1] was determined as 0.114. Also, the inhibition in series [2] is 28.7%.
In the case of `N#CCC(=O)Nc1nncs1`, in series [1], the OD is given as 0.08. The inhibition in series [2] came out at 70.9%.
Regarding `O=C(Nc1nncs1)c1ccc(Cl)cc1`, the OD in series [1] was determined as 0.1. Moreover, in series [2], the inhibition was determined as 26.5%. Also, in the series with Ehrlich, the ED25 came to 11 microg/cm3, the ED50 is reported as 24 microg/cm3 and the ED100 came to 52 microg/cm3.
For `CC1=NN(c2ccccc2)C(=O)/C1=C/c1ccc(Nc2nncs2)cc1`, in series [1], the OD turned out to be 0.105. In series [2], the inhibition came to 41.6%. Also, in the series on Ehrlich, the ED25 was determined as 8.8 microg/cm3, the ED50 is 17 microg/cm3 and the ED100 is 31 microg/cm3.
In the case of `O=Cc1ccc(Nc2nncs2)cc1`, the OD in series [1] came out at 0.1. In addition, the inhibition in series [2] worked out at 26.5%. In the series on Ehrlich, the ED25 is 8.7 microg/cm3, the ED50 turned out to be 17.9 microg/cm3 and the ED100 stood at 38.3 microg/cm3.
Consider `O=C(CN1CCN(c2ccccc2)CC1)Nc1nncs1`, for which, in series [1], the OD was determined as 0.096. Moreover, the inhibition in series [2] came to 25.7%. In addition, in the series on Ehrlich, the ED25 was determined as 13 microg/cm3, the ED50 is reported as 24 microg/cm3 and the ED100 is listed as 46.1 microg/cm3.
